The source of these data is patent US20240383908A1, “SYNTHESIS AND APPLICATION OF PHOSPHATASE DEGRADER” (HINOVA PHARMACEUTICALS INC., priority 2021, published 2024).

Holding throughout (assay type): cell-based
Experiment [1] relates to NCI-H358. The experiment is described as follows: Inhibition of cell proliferation, NCI-H358 (CCK-8). To be noted: Homo sapiens, NCI-H358 cells, read-out: Inhibition activity on the proliferation of different cell lines NCI-H358 (IC50). Here is the method: (§1) (1) MV-411 cells were cultured in the cell culture medium, and then well-growing cells were selected and inoculated in a 96-well plate at 80 μL/well, with 2×10^4 cells/well. The plate was incubated overnight in a 5% CO2 cell incubator at 37° C.
(§2) (2) 10 mM storage solution of each drug was prepared using dimethylsulfoxide (DMSO). The stock solution was diluted in a ratio of 1:3 with DMSO before use, and then the solution was serially diluted in a ratio of 1:3, to obtain 9 gradient concentrations. Each concentration was further diluted with the medium in a ratio of 1:200 (to ensure that the DMSO concentration in the culture system was 0.1%). Two wells were set for each concentration. 20 μL of each compound solution was added to the cell culture well (with a final concentration of 10 μM, 3.3 μM, 1.1 μM . . . ). The plate was gently shaken and mixed. Additionally, 3 negative control wells (only containing cells) and 3 blank control wells (only containing the medium) were included (6 wells were each added with 20 μL of DMSO diluted with the medium in a ratio of 1:200).
(§3) (1) After 5 days of cultivation, 10 μL of CCK-8 was added to each well, and then the plate was further cultured for 3 h at 37° C. in a 5% CO2 cell incubator.
(§4) (2) The absorbance (OD value) was measured at 450 nm with a multifunctional microplate reader. (3) The data were analyzed using the Dose-response-inhibition equation in GraphPad Prism8 software to obtain the IC50 value.
(§5) Using a similar method, the IC50 value (nM) for the inhibitory activity of the compound according to the present invention against different cell lines was obtained, and the results are shown in Table 3 (++++: IC50>5 μM; +++: 1 μM<IC50<5 μM; ++: IC50<1 μM).

Experiment [2] deals with MIA Paca-2. The experiment is described as follows: Inhibition of cell proliferation, MIA Paca-2 (CCK-8). The note with it: Homo sapiens, MIA Paca-2 cells, read-out: Inhibition activity on the proliferation of different cell lines MIA Paca-2 (IC50). Here is the method:
as §1, §2, §3, §4, §5

Experiment [3] concerns the target T1, SHP2 protein (Homo sapiens, UniProt Q06124).
T1 sequence (Q06124 1-593): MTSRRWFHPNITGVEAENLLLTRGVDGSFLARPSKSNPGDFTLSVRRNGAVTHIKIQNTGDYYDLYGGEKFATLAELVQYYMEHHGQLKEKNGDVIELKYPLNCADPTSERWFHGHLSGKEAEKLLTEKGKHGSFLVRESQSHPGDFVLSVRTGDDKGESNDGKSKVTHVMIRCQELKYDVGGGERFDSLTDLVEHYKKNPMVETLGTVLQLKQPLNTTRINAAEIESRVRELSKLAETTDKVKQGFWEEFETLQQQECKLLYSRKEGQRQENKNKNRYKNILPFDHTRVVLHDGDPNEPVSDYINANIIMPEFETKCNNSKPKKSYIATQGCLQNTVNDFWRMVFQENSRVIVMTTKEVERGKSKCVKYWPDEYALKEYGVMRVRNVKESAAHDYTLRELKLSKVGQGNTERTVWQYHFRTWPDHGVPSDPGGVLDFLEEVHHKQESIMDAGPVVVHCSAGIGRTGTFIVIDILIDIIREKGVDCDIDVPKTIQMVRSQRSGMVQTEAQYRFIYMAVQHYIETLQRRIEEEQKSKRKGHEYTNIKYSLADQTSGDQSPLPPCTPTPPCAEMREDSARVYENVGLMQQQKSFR
Nature of the experiment: Degradation activity on SHP2 protein in MV-411 cells (Western blot, DC50). Set-up: endogenous in cells. To be noted: MV411 cells, 24 hours, read-out: Degradation activity for differenct cell lines MV411 (DC50). The essentials:
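MV-411 cells (1×10^6 cells/well, IMDM + 10% FBS) were treated 24 h with compound at 0.1-100 nM final, 0.1% DMSO, duplicates. SHP2 measured by Western blot against GAPDH, band density normalised to DMSO control; DC50 from dose-response fit.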
For orientation: A western blot detects proteins with antibodies after separation by electrophoresis.

Experiment [4] deals with MV-411 cell line. Nature of the experiment: Inhibition of cell proliferation, MV-411 (CCK-8). The note with it: Homo sapiens, MV4-11, 120 h, MV411 cells, 5 days, read-out: Inhibition activity on the proliferation of different cell lines MV411 (IC50). Here is the method: • MV-411 cell line (COBIER, CBP-60522) • FBS (GEMINI, Cat. No. 900-108) • 0.01M PBS (Biosharp, Cat. No. 162262) • IMDM (Hyclone, Cat. No. SH30228.01) • Penicillin-Streptomycin (Gibco, Cat. No. 15140122) • DMSO (Sigma, Cat. No. D5879) • Cell counting kit-8 (Signalway Antibody, Cat. No. CP002) • Centrifuge Tube, 15 ml (Excell Bio, Cat. No. CS015-0001) • Cell Culture Dish, (WHB, Cat. No. CS016-0128) • 96-well cell culture cluster (Corning, Cat. No. 3599)
• (1) Cell culture medium: IMDM medium+10% FBS+1% Pen Strep; • (2) PBS buffer: PBS powder was dissolved in 2 L of ultrapure water and sterilized;
as §1, §2, §3, §4

Experiment [5] concerns the target T1, SHP2 protein. Nature of the experiment: Degradation activity on SHP2 protein in NCI-H358 cells (Western blot, DC50). Set-up: endogenous in cells. The note with it: read-out: Degradation activity for differenct cell lines NCI-H358 (DC50). The gist of the method: (§6)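 Cells were treated 24 h at 37 °C with compound (0.1–100 nM final, 0.1% DMSO). SHP2 was measured by Western blot with GAPDH as loading control, densitometry normalized to DMSO (100%). DC50, the concentration giving 50% degradation, came from a dose-response fit.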

The target in experiment [6] is T1, SHP2 protein. Nature of the experiment: Degradation activity on SHP2 protein in MIA Paca-2 cells (Western blot, DC50). The note with it: read-out: Degradation activity for differenct cell lines MIA Paca-2 (DC50). Set-up: endogenous in cells; host or cells: MIA Paca-2 cells. The essentials:
as §6

Experiment [7] deals with KYSE 520. The experiment is described as follows: Inhibition of cell proliferation, KYSE 520 (CCK-8). The note with it: Homo sapiens, KYSE 520 cells, read-out: Inhibition activity on the proliferation of different cell lines KYSE 520 (IC50). The method, then:
as §1, §2, §3, §4, §5

Where a name gives a salt, the structure may show the parent alone.

Take `CC1(N)CCN(c2cnc(Sc3cccc(NC(=O)CCCCCCCO[C@H]4CCN(Cc5ccc(COc6cccc7c6CN(C6CCC(=O)NC6=O)C7=O)cc5)C4)c3)cn2)CC1` (stereo partly shown) [Compound 96]: the IC50 in experiment [1] and in experiment [2] was less than 1000 nM each time. Besides, the DC50 (usually the concentration giving 50% degradation) in experiment [3] was less than 100 nM.

On to `O=C1CCC(N2Cc3cc(CNC(=O)c4ccc(N5CCC6(CN(CCC(=O)Nc7cccc(Sc8cnc(N9CCC%10(CCNC%10)CC9)cn8)c7)C6)C5)nn4)ccc3C2=O)C(=O)N1` (stereo not shown) [Compound 111], for which the figures for the IC50 in experiment [4], in experiment [1] and in experiment [2] were less than 1000 nM, 1000 to 5000 nM and 1000 to 5000 nM, respectively. Further, the DC50 in experiment [3] is greater than 1000 nM.

Regarding `CN(Cc1ccc2c(c1)CN(C1CCC(=O)NC1=O)C2=O)C(=O)c1ccc(N2CCN(CCCCCCCCC(=O)Nc3cccc(Sc4cnc(N5CCC(C)(N)CC5)cn4)c3)C(C(F)(F)F)C2)nn1` (stereo not shown) [Compound 175], the IC50 in experiment [2] fell in the range of 1000 to 5000 nM. Besides, in experiment [3], the 50% degradation concentration (DC50) is less than 100 nM.

Turning to `CC1(N)CCN(c2cnc(Sc3cccc(NC(=O)CCCCCCN4CC5(CCN(c6ccc(C(=O)NCc7ccc8c(c7)CN(C7CCC(=O)NC7=O)C8=O)nn6)C5)C4)c3)cn2)CC1` (stereo not shown) [Compound 110], the IC50 in experiment [1] and in experiment [2] was greater than 5000 nM in each case. Further, the DC50 was less than 100 nM in experiment [3], 100 to 1000 nM in experiment [5] and 100 to 1000 nM in experiment [6].

For the compound `C[C@@H]1OCC2(CCN(c3cnc(Sc4cccc(NC(=O)c5ccc(N6CCC(N7CC=C(c8ccc(C(=O)NCc9ccc%10c(c9)CN(C9CCC(=O)NC9=O)C%10=O)nn8)CC7)CC6)c(F)c5)c4)cn3)CC2)[C@@H]1N` (stereo partly drawn) [Compound 519, N-{[2-(2,6-oxohexahydropyridine-3-yl)-1-oxo-2,3-dihydro-1H-isoindol-5-yl]methyl}-6-(1-{1-[2-fluoro-4-({[3-({5-[(3S,4S)-4-amino-3-methyl-8-aza-2-oxaspiro[4.5]decan-8-yl]pyrazin-2-yl}thio)phenyl]amino}carbonyl)phenyl]hexahydropyridine-4-yl}-1,2,3,6-tetrahydropyridin-4-yl)-1,2-diazacyclohexane-3-formamide hydrochloride], the IC50 in experiment [4] was less than 1000 nM; in experiment [7], 1000 to 5000 nM. In experiment [6], the DC50 was less than 100 nM.

As for `CC1CN(c2ccc(C(=O)NCc3ccc4c(c3)CN(C3CCC(=O)NC3=O)C4=O)nn2)CC(C)N1CCCCCCCCC(=O)Nc1cccc(Sc2cnc(N3CCC(C)(N)CC3)cn2)c1` (stereo not shown) [Compound 138], the IC50 in experiment [4] is less than 1000 nM. For the same compound, the DC50 in experiment [3], in experiment [5] and in experiment [6] was less than 100 nM in each case.

As for `Cc1ncsc1-c1ccc([C@H](C)NC(=O)[C@@H]2C[C@@H](O)CN2C(=O)[C@@H](NC(=O)c2cnc(N3CC(OCCCCCCCCC(=O)Nc4ccc(Sc5cnc(N6CCC(C)(N)CC6)cn5)cc4)C3)nc2)C(C)(C)C)cc1` [Compound 75], the DC50 in experiment [3], in experiment [5] and in experiment [6] was less than 100 nM each time.

Regarding `CC1(N)CCN(c2cnc(Sc3cccc(NC(=O)CCCCCCCN4CC5CN(c6ccc(C(=O)NCc7ccc8c(c7)CN(C7CCC(=O)NC7=O)C8=O)nn6)CC5C4)c3)cn2)CC1` (stereo not shown) [Compound 100], the half-maximal degradation concentration (DC50) in experiment [3], in experiment [5] and in experiment [6] was less than 100 nM each time.

Turning to `C[C@@H]1OCC2(CCN(c3cnc(Sc4cccc(NC(=O)c5ccc(N6CCC(N7CCN(c8ccc(C(=O)NCc9ccc%10c(c9)CN(C9CCC(=O)NC9=O)C%10=O)cc8F)CC7)CC6)cc5)c4)cn3)CC2)[C@@H]1N` (stereo partly shown) [Compound 514], the IC50 in experiment [4] is less than 1000 nM; in experiment [7] it was 1000 to 5000 nM. Besides, the DC50 in experiment [6] is greater than 1000 nM.

In the case of `CC1(N)CCN(c2cnc(Sc3cccc(NC(=O)c4ccc(N5CCC(N6CC=C(c7cnc(C(=O)NCc8ccc9c(c8)CN(C8CCC(=O)NC8=O)C9=O)c(F)c7)CC6)CC5)c(F)c4)c3)cn2)CC1` (stereo not shown) [Compound 414], the IC50 in experiment [4] is greater than 5000 nM; in experiment [7], 1000 to 5000 nM. Further, in experiment [6], the DC50 was less than 100 nM.

Regarding `C[C@@H]1OCC2(CCN(c3cnc(Sc4cccc(NC(=O)c5ccc(N6CCC(N7CCN(c8ccc(C(=O)NCc9ccc%10c(c9)CN(C9CCC(=O)NC9=O)C%10=O)c(F)c8)CC7)CC6)cc5)c4)cn3)CC2)[C@@H]1N` (stereo partly shown) [Compound 500], the IC50 was less than 1000 nM in experiment [4] and 1000 to 5000 nM in experiment [7]. Besides, the DC50 in experiment [6] was greater than 1000 nM.

Consider `CC1(N)CCN(c2cnc(Sc3cccc(NC(=O)CCCCCCN4CC5(CCN(c6ncc(C(=O)NCc7ccc8c(c7)CN(C7CCC(=O)NC7=O)C8=O)cc6Cl)C5)C4)c3)cn2)CC1` (stereo not shown) [Compound 181], for which the IC50 in experiment [2] lay within 1000 to 5000 nM. For the same compound, the 50% degradation concentration (DC50) in experiment [3], in experiment [5] and in experiment [6] was less than 100 nM throughout.

As for `Cc1ncsc1-c1ccc([C@H](C)NC(=O)[C@@H]2C[C@@H](O)CN2C(=O)[C@@H](NC(=O)c2cnc(N3CC(OCCCCCCC(=O)Nc4cccc(Sc5cnc(N6CCC(C)(N)CC6)cn5)c4)C3)nc2)C(C)(C)C)cc1` [Compound 86], the half-maximal degradation concentration (DC50) in experiment [3], in experiment [5] and in experiment [6] was less than 100 nM throughout.

In the case of `CC1(N)CCN(c2cnc(Sc3cccc(NC(=O)CCCCCCN4CC5(CCN(c6ccc(C(=O)NCc7ccc8c(c7)CN(C7CCC(=O)NC7=O)C8=O)nc6)C5)C4)c3)cn2)CC1` (stereo not shown) [Compound 186], the DC50 in experiment [3], in experiment [5] and in experiment [6] was less than 100 nM in each case.

On to `CC1(N)CCN(c2cnc(Sc3cccc(NC(=O)CCCCCCN4CC5(CC=C(c6ccc(C(=O)NCc7ccc8c(c7)CN(C7CCC(=O)NC7=O)C8=O)nn6)CC5)C4)c3)cn2)CC1` (stereo not shown) [Compound 207], for which the 50% degradation concentration (DC50) in experiment [3], in experiment [5] and in experiment [6] was less than 100 nM in each case.

With `Cc1ncsc1-c1ccc([C@H](C)NC(=O)[C@@H]2C[C@@H](O)CN2C(=O)[C@@H](NC(=O)c2cnc(N3CCC4(CN(CCC(=O)Nc5cccc(Sc6cnc(N7CCC(C)(N)CC7)cn6)c5)C4)C3)nc2)C(C)(C)C)cc1` [Compound 64], the results for the DC50 in experiment [3], in experiment [5] and in experiment [6] were less than 100 nM, 100 to 1000 nM and 100 to 1000 nM, respectively.
